Experimental data taken from BigSolDB 2.1.

COc1cccc(C(=O)O)c1OC
solubility (mole fraction)
Conditions	278.15 K	283.15 K	288.15 K	293.15 K	298.15 K	303.15 K	308.15 K	313.15 K	318.15 K	323.15 K
in 1,4-dioxane	–	–	0.0585	0.069	0.0805	0.0934	0.11	0.127	0.148	–
in 2-ethoxyethanol	0.0418	0.0485	0.0552	0.0644	0.0733	0.084	0.0974	0.109	0.128	0.146
in acetonitrile	0.0108	0.0133	0.0167	0.0204	0.0254	0.0309	0.0385	0.0474	0.059	0.0734
in ethanol	0.0131	0.0165	0.0202	0.0252	0.0304	0.0384	0.0466	0.0592	0.0714	0.0884
in ethyl acetate	0.0133	0.0159	0.0189	0.023	0.0271	0.0332	0.0391	0.0464	0.057	0.0685
in ethylene glycol	0.0468	0.0529	0.0616	0.0708	0.0801	0.092	0.104	0.12	0.137	0.154
in isopropanol	0.00832	0.0106	0.0138	0.0175	0.0233	0.0291	0.0384	0.0482	0.0632	0.0791
in isopropyl acetate	0.00953	0.0111	0.0137	0.0162	0.0198	0.0237	0.029	0.0339	0.0425	0.0499
in methanol	0.0151	0.0192	0.0229	0.0288	0.0348	0.0446	0.0535	0.0682	0.0838	0.101
in methyl acetate	0.0166	0.0197	0.0236	0.0282	0.034	0.041	0.0494	0.0589	0.0719	0.0862
in n-butanol	0.00922	0.0116	0.0144	0.0183	0.0219	0.0284	0.0362	0.0449	0.0562	0.0716
in n-butyl acetate	0.00923	0.0111	0.0134	0.016	0.0195	0.0234	0.0286	0.0342	0.0428	0.0506
in n-propanol	0.00925	0.0122	0.0151	0.0197	0.0243	0.0316	0.0386	0.05	0.0618	0.0793
in n-propyl acetate	0.0106	0.0133	0.0154	0.0193	0.0224	0.0279	0.0326	0.0403	0.0468	0.0583
in water	4.79e-05	6.1e-05	7.77e-05	0.0001	0.000125	0.000162	0.000202	0.00026	0.000323	0.000399
